Results reported in US20250361269A1, “PEPTIDE EXHIBITING MUSCLE LOSS PREVENTION AND MUSCLE MASS PROMOTION ACTIVITIES, AND USE THEREOF” (CAREGEN CO., LTD., priority 2022, published 2025).

Columns and labels:
[1] = tested on: muscle tissue, muscle damage induced by BaCl2; assay: Western blotting of protein expression in muscle tissue from BaCl2-induced muscle damage model; assay type: in vivo, C57BL/6 mouse; settings: 20 mg peptide orally, six times, Day 7 after BaCl2 muscle damage
Protocol: 50 μl of a 1.2% (w/v) BaCl2 aqueous solution was injected into the tibialis anterior (TA) muscle of a 8-week-old male C57BL/6 mouse to induce muscle damage for 1 day. Afterwards, 20 mg of the peptide of SEQ ID NO: 1 was administered orally at a concentration of 0.1 mg/μl at 1-day intervals for a total of six times to the mouse with induced muscle damage. For a positive control group, 0.5 ug of IGF-I was injected intramuscularly at a concentration of 0.01 ug/μl. On Day 7 after inducing the muscle damage, the mouse was sacrificed, and the changes in the TA muscle were visually observed and the mouse was weighed. A non-treated group (Non) was used as a control group, a group (N.C) in which only muscle damage was induced by BaCl2 was used as a negative control group, and a group (P.C) in which muscle damage was induced by BaCl2 and then treated with IGF-I was used as a positive control group. The muscle tissue obtained from the mouse with the induced muscle damage of Example 4-1 was lysed by using homogenizer, and the lysate was dissolved by adding a dissolution buffer thereto. The resulting product was centrifuged at 4° C. and 12,000 rpm for 30 minutes to obtain proteins which were then quantified by using a BCA kit. SDS-PAGE was performed on samples containing these proteins to separate the respective proteins which were then electrotransferred onto a membrane. The membrane to which the proteins were attached was blocked by treating with 5% skim milk, and primary antibodies were allowed for a reaction overnight at 4° C. After washing with PBS-T, secondary antibodies were allowed for a reaction at room temperature for 1 hour. After washing with PBS-T again, the proteins were detected by using Gel Doc (Bio-Rad, Hercules, CA, USA) and Western detection reagents (Elpis Biotech, Daejeon, Korea). Here, anti-MyHC (Santa Cruz, USA), anti-α-actinin (Santa Cruz, USA), anti-α-SMA (Abcam, UK), anti-IL-6 (Santa Cruz, USA), and anti-a-tubulin (Santa Cruz, USA) were used as the primary antibodies.

[2] = tested on: C2C12 cells; assay: Immunofluorescence of myogenin (MyoG) in C2C12 myoblasts; assay type: cell-based, mouse; settings: 100 ug/ml peptide, after three days in differentiation medium
Protocol: C2C12 cells were cultured in a DMEM supplemented with 1% P/S and 2% BCS. When the cell confluency reached 70-80%, the cells were seeded into a 6-well culture plate. Afterwards, when the cell confluency in the 6-well culture plate reached 100%, the culture medium was replaced with a differentiation medium (supplemented with 1% P/S and 2% horse serum), and 100 ug/ml of the peptide of SEQ ID NO: 1 was added thereto. Afterwards, the differentiation medium and 100 ug/ml of the peptide were replaced and added, respectively, once every two days. After three days from the first day of medium replacement, the cultured cells were fixed with 4% paraformaldehyde (PFA) at room temperature for 10 minutes and permeabilized with 0.1% triton X-100 for 5 minutes. Afterwards, the fixed cells were mixed with PBS, 10% FBS, and 0.1% triton X-100 for blocking at room temperature for 1 hour, and then treated with primary antibodies (MyoG, Santa Cruz, USA). The resulting cells were incubated for 1 hour at room temperature. Afterwards, the cells were washed, and incubated again with secondary antibodies (goat anti-mouse IgG-TR, Santa Cruz, USA) at room temperature for 30 minutes. Afterwards, the cell nuclei were stained with DAPI (Santa Cruz, USA) and observed under a LEICA fluorescence microscope (TCS SP8, LEICA, Germany).

[3] = tested on: C2C12 cells; assay: Western blotting of early differentiation markers in C2C12 myoblasts; assay type: cell-based, mouse; settings: 5, 50, or 100 ug/ml peptide, after three days in differentiation medium, vs CM group
Protocol: In this example, by evaluating changes in the expression of an early differentiation marker protein of C2C12 cells, which are mouse myoblasts, it was to confirm the effects of the peptide according to an example on the differentiation of myoblasts into muscle cells/muscle fibers at an early differentiation stage.
The C2C12 cells were cultured in a DMEM supplemented with 1% P/S and 2% BCS. When the cell confluency reached 70-80%, the cells were seeded into 6-well culture plates. Afterwards, when the cell confluency in the 6-well culture plate reached 100%, the culture medium was replaced with a differentiation medium (supplemented with 1% P/S and 2% horse serum), and 5, 50, or 100 ug/ml of the peptide of SEQ ID NO: 1 was added thereto. Afterwards, the differentiation medium and the same amount of the peptide of SEQ ID NO: 1 were replaced and added, respectively, once every two days. After three days from the first day of medium replacement, the culture was lysed by adding a dissolution buffer thereto, and proteins were obtained by centrifugation at 4° C. and 12,000 rpm for 30 minutes. These proteins were then quantified by using a BCA kit. […] After washing with PBS-T again, the proteins were detected by using Gel Doc (Bio-Rad, Hercules, CA, USA) and Western detection reagents (Elpis Biotech, Daejeon, Korea). […]

[4] = tested on: C2C12 cells; assay: Western blotting of late differentiation marker MyHC in C2C12 myoblasts; assay type: cell-based, mouse; settings: 5, 50, or 100 ug/ml peptide, after 7 days in differentiation medium, vs CM group
Protocol: The C2C12 cells were cultured in a DMEM supplemented with 1% P/S and 2% BCS. When the cell confluency reached 70-80%, the cells were seeded into 6-well culture plates. Afterwards, when the cell confluency in the 6-well culture plate reached 100%, the culture medium was replaced with a differentiation medium (supplemented with 1% P/S and 2% horse serum), and 5, 50, or 100 ug/ml of the peptide of SEQ ID NO: 1 was added thereto. Afterwards, the differentiation medium and the same amount of the peptide of SEQ ID NO: 1 were replaced and added, respectively, once every two days. […] These proteins were then quantified by using a BCA kit. SDS-PAGE was performed on samples containing these proteins to separate the respective proteins which were then electrotransferred onto a membrane. The membrane to which the proteins were attached was blocked by treating with 5% skim milk, and primary antibodies were allowed for a reaction overnight at 4° C. After washing with PBS-T, secondary antibodies were allowed for a reaction at room temperature for 1 hour. After washing with PBS-T again, the proteins were detected by using Gel Doc (Bio-Rad, Hercules, CA, USA) and Western detection reagents (Elpis Biotech, Daejeon, Korea). […]

[5] = tested on: C2C12 cells; assay: Immunofluorescence of a-actinin in C2C12 myoblasts; assay type: cell-based, mouse; settings: after 7 days in differentiation medium, vs CM group
[6] = tested on: tibialis anterior (TA) muscle, muscle damage induced by BaCl2; assay: Muscle mass of TA muscle in BaCl2-induced muscle damage animal model; assay type: in vivo, C57BL/6 mouse; settings: 20 mg peptide orally at 1-day intervals, six times; Day 7 after BaCl2 muscle damage
Protocol: In this example, an animal model of muscle damage induced by BaCl2 was used to determine the effect of the peptide according to an embodiment on the muscle loss prevention, by evaluating changes in muscle mass, areas of infiltration of immune cells in muscle tissue, levels of accumulated collagen, and expression levels of proteins constituting muscle fibers and inflammatory proteins. 50 μl of a 1.2% (w/v) BaCl2 aqueous solution was injected into the tibialis anterior (TA) muscle of a 8-week-old male C57BL/6 mouse to induce muscle damage for 1 day. Afterwards, 20 mg of the peptide of SEQ ID NO: 1 was administered orally at a concentration of 0.1 mg/μl at 1-day intervals for a total of six times to the mouse with induced muscle damage. For a positive control group, 0.5 ug of IGF-I was injected intramuscularly at a concentration of 0.01 ug/μl. On Day 7 after inducing the muscle damage, the mouse was sacrificed, and the changes in the TA muscle were visually observed and the mouse was weighed. A non-treated group (Non) was used as a control group, a group (N.C) in which only muscle damage was induced by BaCl2 was used as a negative control group, and a group (P.C) in which muscle damage was induced by BaCl2 and then treated with IGF-I was used as a positive control group.

[7] = tested on: muscle tissue, muscle damage induced by BaCl2; assay: Sirius red staining of muscle tissue from BaCl2-induced muscle damage model; assay type: in vivo, C57BL/6 mouse; settings: 20 mg peptide orally, six times, Day 7 after BaCl2 muscle damage
Protocol: (§1) 50 μl of a 1.2% (w/v) BaCl2 aqueous solution was injected into the tibialis anterior (TA) muscle of a 8-week-old male C57BL/6 mouse to induce muscle damage for 1 day. Afterwards, 20 mg of the peptide of SEQ ID NO: 1 was administered orally at a concentration of 0.1 mg/μl at 1-day intervals for a total of six times to the mouse with induced muscle damage. For a positive control group, 0.5 ug of IGF-I was injected intramuscularly at a concentration of 0.01 ug/μl. On Day 7 after inducing the muscle damage, the mouse was sacrificed, and the changes in the TA muscle were visually observed and the mouse was weighed. A non-treated group (Non) was used as a control group, a group (N.C) in which only muscle damage was induced by BaCl2 was used as a negative control group, and a group (P.C) in which muscle damage was induced by BaCl2 and then treated with IGF-I was used as a positive control group. Muscle tissue obtained from the mouse with induced muscle damage of Example 4-1 was washed with PBS at room temperature and then fixed with 4% paraformaldehyde (PFA). Afterwards, the fixed muscle tissue was washed three times with PBS and dehydrated by using a gradient ethanol series (from 70% to 100%). A sample of the muscle tissue was sectioned into 4 μm sections. […]

[8] = tested on: muscle tissue, muscle damage induced by BaCl2; assay: H&E staining of muscle tissue from BaCl2-induced muscle damage model; assay type: in vivo, C57BL/6 mouse; settings: 20 mg peptide orally, six times, Day 7 after BaCl2 muscle damage
Protocol: as §1

Substance: EAEYEHL [peptide of SEQ ID NO: 1]
- expression of IL-6 in damaged tissue [1]: decreased
- expression of MyHC, protein constituting muscle fibers, in damaged tissue [1]: increased
- expression of α-SMA, inflammatory protein, in damaged tissue [1]: decreased
- expression of α-actinin in damaged tissue [1]: increased
- expression of myogenin (MyoG) [2]: increased
- expression of myogenin (MyoG) in the nuclear region of myoblasts [2]: increased
- expression of Myf5, early differentiation marker of myoblasts [3]: increased
- expression of myogenin (MyoG), early differentiation marker of myoblasts [3]: increased
- expression of MyHC, late differentiation marker of myoblasts [4]: increased
- expression of a-actinin, late differentiation marker of myoblasts [5]: increased
- muscle mass of the TA muscle [6]: increased
- accumulation of collagen in the tissue [7]: reduced
- area of infiltration of immune cells in the tissue [8]: reduced
